Measurements from patent publication US20220257484A1, “WHOLE MOUTH MALADOR CONTROL BY A COMBINATION OF ANTIBACTERIAL AND DEODORIZING AGENTS” (The Procter & Gamble Company, priority 2010, published 2022).
Values joined by “and” are separate entries in the source; they are usually repeats but may differ in a detail not shown here. Equal values may be shown once.

Assay: in-vitro headspace GC-MS odor-neutralizing test, Relative Odor Activity Value (ROAV)
Conditions: recreated garlic odor, 0.05% active concentration, vs control, negative value indicates no reduction
Procedure: The odor-neutralizing or deodorization activity of target actives was evaluated against a recreated garlic odor using an in-vitro headspace gas chromatography-mass spectrometry (GC-MS) method described below. A mixture of five sulfur compounds (ethanethiol, 1-propanethiol, […], methyl allyl disulfide and […]) was used to simulate a garlic odor. […] [See e.g., J. Taucher, et al. J. Agric. Food Chem. (1996), 44 (12), 3778-3782; F. Suarez, et al. Am. J. Physiol. Gastrointest. Liver Physiol. (1999), 276: G425-G430; I. Laakso, et al. Planta Med. (1989), 55, 257-261; X. J. Cai, et al. J. Agric. Food Chem. (1995), 43, 1751-1753; T. Minami, et al. J. Food Sci. (1989), 54, 763-765.]
The following procedure and instrumentation were used to evaluate the relative odor-neutralizing activity of various compounds.
1) Purge product base (e.g., mouthrinse or dental solution) with nitrogen for 10 minutes. 2) Purge all sample preparation vials with stir bars inside for 1 minute. 3) Add 3960 μl product base to control vials (4 ml capacity) and 3560 μl product base to test sample vials (4 ml capacity). 4) Make garlic stock by mixing the following components in order: 600 μl ethanol; 500 μl ethanethiol; 80 μl 1-propanethiol; 30 μl […]; 20 μl methyl allyl disulfide; 70 μl […]. 5) Add 40 ul of garlic stock to each control and test sample vial. 6) Stir all samples to mix product base and garlic stock for a total time of 20 min. To each test sample vial, add 400 μl of test active after 15 min. of stirring and allow test active mix in and react for 5 min. 7) After mixing, transfer 50 μl each of control sample and test sample to nitrogen purged GC headspace vials. 8) Place control and test sample vials on headspace autosampler for GC analysis. Each sample is equilibrated at 32° C. for 3 min. before injection into the GC instrument.
A Relative OAV is calculated for each component by dividing its peak area by its odor threshold value. Odor threshold values for these compounds are reported in the literature. […] A negative value indicates no reduction in ROAV.

Molecule | % Reduction of ROAV | also measured
Cc1ccc(C=O)cc1 [4-methylbenzaldehyde] | 3.67% | –
CC1=CC(=O)[C@@H](C(C)C)CC1 [(−) Piperitone] | 10.19% | –
COc1ccc(C=O)cc1 [Anisaldehyde, 4-methoxybenzaldehyde] | 20.76% | % Reduction of ROAV (listed as 4-Methoxybenzaldehyde (Anisaldehyde)): 20.76%; % Reduction of ROAV (listed as anisaldehyde): 20.76% and > 20%
O=CC=Cc1ccccc1 [Cinnamaldehyde] | 10.73% | –
CC(C)=CCCC(C)=CC=O [Citral, reference compound] | −19.54% | –
CCc1occc(=O)c1O [Ethyl maltol, reference compound] | −3.46% | –
O=Cc1ccc2c(c1)OCO2 [Heliotropin, reference compound] | −2.92% | –
CCCCCC/C(C=O)=C\c1ccccc1 [Hexyl cinnamaldehyde, reference compound] | −1.19% | –
COc1ccc(C=O)cc1OC [Methyl vanillin (Veratraldehyde), 3,4-Dimethoxybenzaldehyde] | 4.45% | –
CCCCCCCC=O [Octanal, reference compound] | −28.76% | % Reduction of ROAV (listed as octanal): no reduction of ROAV
O=Cc1ccccc1O [Salicylaldehyde, 2-Hydroxybenzaldehyde, reference compound] | −5.87% | –
COc1ccc(C=CC=O)cc1 [para-Methoxycinnamaldehyde, reference compound] | −0.49% | –
CC(=O)/C=C/C1=C(C)CCCC1(C)C [β-Ionone] | 17.56% | –
L(−) Carvone | 3.27% | –
